Experimental data: patent US20020111274A1, “1-alkyl-3-[1-(substituted phenyl) benzotriazol-6-yl] uracils” (BASF Aktiengesellschaft, priority 2000, published 2002)

Row | melting point [°C] | Compound
1 | 145 to 150 | COc1ccc(C)cc1-n1nnc2cc(F)c(-n3c(=O)cc(C(F)(F)F)[nH]c3=O)cc21 [Example 2, 3-[5-fluoro-1-(2-methoxy-5-methylphenyl)-1H-1,2,3-benzotriazol-6-yl]-6-(trifluoromethyl)-2,4(1H,3H)-pyrimidinedione]
2 | 160 to 164 | CCc1ccc(-n2nnc3cc(F)c(-n4c(=O)cc(C(F)(F)F)[nH]c4=O)cc32)cc1 [Example 3, 3-[1-(4-ethylphenyl)-5-fluoro-1H-1,2,3-benzotriazol-6-yl]-6-(trifluoromethyl)-2,4(1H,3H)-pyrimidinedione]
